Test results from patent publication EP0117578A2, “Azole-substituted alcohol derivatives” (SHIONOGI & CO., LTD., priority 1983, dated 1984).
In brackets after ≈: the same amount, converted by molar mass.

Experiments:
Candida albicans KE-2 [1] = test: Therapeutic effect against experimental candidiasis in mice; format: in vivo; conditions: female Jcl-ICR mice infected intravenously; 50 mg/kg orally twice a day for 5 days; survival at the 15th day
Method: [Therapeutic effect against experimental candidiasis in mice] Candida albicans KE-2 was cultivated in a Sabouraud's dextrose agar at 28°C for 48 hours, and the resulting culture was suspended in the Sabouraud's dextrose broth. The cells (5 x 105) were administered intravenously at the tail of female Jcl-ICR mice (4 weeks age, body weight 18 - 20 g). The test compound suspended in 2 % gum-arabic was orally administered at a dose of 50 mg/kg twice a day for 5 days: on the first day, the test compound was administered twice i.e. immediately after the infection and 2 hours later; on the second day or later, 24 hours after the administration of the previous day respectively. An infected group to which no test compound was administered was regarded as a control group. Eight mice were employed per group in the control group and the test groups to which the test compound was administered. Therapeutic effect was evaluated on the survival rate at the 15th day since the day of infection; the result is shown below.

Trichophyton asteroides = test: in vitro antifungal test, minimum inhibitory concentration (MIC); format: cell-based; conditions: Sabouraud's dextrose broth
Text: Sabouraud's dextrose broth was used as a culture medium.

[2] = tested on: cucurbit powdery mildew (Sphaerotheca fuliginea); test: Control of powdery mildew in cucumber; format: in vivo; parameters: key: O: Disease sign was detected for nearly 100 % area in the inoculated leaf surface; 3: Disease sign was detected for about 50 % area; 5: Disease sign was detected for about 30 % area; 7: Disease sign was detected for about 20 % area; 9: Disease sign was slightly detected; 10: No disease sign was detected; conditions: degree of mildew infection 10 days after inoculation; for Foliar spray (125 ppm) Supprension: sprayed at 125 ppm 2 days after inoculation; for Foliar spray (125 ppm) Prevention: sprayed at 125 ppm before inoculation; for Soil application (10 ppm) Prevention: 10 ml at 10 ppm applied to the soil before inoculation
Method: Three ml of preparation containing a test compound at a concentration of 125 ppm was sprayed foliarly to the first leaf of young cucumber plant (cultivar: Matsukaze) which was grown in 9 cm pot in a glasshouse. Similar preparation in 10 ml with the test compound at a concentration of 10 ppm was applied directly to the soil in another pot with cucumber. These plants were inoculated subsequently with conidia suspension of cucurbit powdery mildew (Sphaerotheca fuliginea) and kept in a glasshouse at the temperature of 25 ± 2 °C. Yet in another experiment cucumber in pot was inoculated first with conidia of Sphaerotheca fuliginea and after 2 days the test compound was sprayed foliarly as above to examine its suppressive ability against development of the disease. For all these cucumber plants were observed 10 days after each inoculation and degrees of mildew infection were given as follows: • O : Disease sign was detected for nearly 100 % area in the inoculated leaf surface • 3 : Disease sign was detected for about 50 % area • 5 : Disease sign was detected for about 30 % area • 7 : Disease sign was detected for about 20 % area • 9 : Disease sign was slightly detected • 10: No disease sign was detected

Candida albicans KE-2 [3] = test: Inhibition test against the formation of the pseudohyphae of Candida albicans; format: cell-based; conditions: KE2; Candida albicans KE-2, 1 x 10^6 cells/ml; Eagle's MEM with 20 % bovine serum; 37°C, 18 hours; two-fold dilution; read-out: Inhibitory Concentration against Pseudohyphae Formation
Method: [Inhibition test against the formation of the pseudohyphae of Candida albicans] To an Eagle's MEM medium (Nissan 2; Nissui Pharmaceutical Co., Ltd.) was added 20 % bovine serum, onto which yeast cells of Candida albicans KE-2 were inoculated so that the terminal inoculum size would amount to 1 x 10^6 cells/ml. Then, a test compound was added to the medium by a two-fold dilution method, and cultivation was performed at 37°C for 18 hours. After termination of the cultivation, the cells of serial dilution on each medium were smeared and fixed on an object glass, then stained by the Giemsa's staining method, and the occurrence of the pseudohyphae was observed by microscopy. Minimum concentration for inhibiting the formation of the pseudohyphae was regarded as Inhibitory Concentration against Pseudohyphae Formation.

[4] = tested on: cucumber downy mildew (Pseudoperonospora cubensis); test: Control of cucumber downy mildew; format: in vivo; conditions: cucumber leaf sprayed at 125 ppm, 10 days
Method: The first leaf of young cucumber plant (cultivar : Matsukaze) grown in pot was sprayed with 3 ml of preparation containing a test compound at a concentration of 125 ppm. Five small droplets of suspension of sporangia of cucumber downy mildew (Pseudoperonospora cubensis) were applied to the leaf surface and the pot was kept at 22 ± 2°C under humid condition for 10 days. Then disease degree of downy mildew symptom developed was determined by the following method : [formula] • where, a : Number of inoculations showing typical disease symptom • b : Number of inoculations at which chlorosis was developed • c : Number of inoculations at which chlorosis was slightly developed • d : Number of inoculations at which no disease symptoms were developed Disease degree in Disease degree in [formula]

[5] = tested on: dumping-off pathogen, Rhizoctonia solani; test: Control of dumping-off in cucumber seedlings; format: in vivo; conditions: cucumber seeds, 14 days after sowing; for Disease degree (%): 30 ml at 500 ppm applied to the soil, 30 ± 2 °C; for Control (%): 500 ppm applied to the soil, calculated from disease degree
Method: Twenty seeds of cucumber (cultivar: Matsukaze) were sown in 150 g of sterilized soil in 9 cm pot. The soil surface was covered with 15 g of inoculum which contained a dumping-off pathogen, Rhizoctonia solani precultured in a mixture of wheat bran and sterilized soil. Then 30 ml of preparation with a test compound at a concentration of 500 ppm was applied to the soil and the pot was kept at 30 ± 2 °C in a humid chamber.

[6] = tested on: sheath blight fungus (Rhizoctonia solani); test: Control of sheath blight in rice; format: in vivo; conditions: rice sprayed foliarly at 500 ppm, 5 days
Method: Rice (cultivar: Aichi-asahi) was grown in pots in a glasshouse for about 3 months and the plant in each pot was sprayed foliarly with 5 ml of preparation containing a test compound at a concentration of 500 ppm. Then the rice was inoculated at the stem near the soil with sheath blight fungus (Rhizoctonia solani) which was previously cultured in rice husks. The inoculated plant was placed in a humid (r.h. 97 %) chamber at 28°C for 5 days.

Compound: O=C(c1ccc(F)cc1)C(O)(Cn1cncn1)c1ccccc1Cl (centres unmarked) [compound 19]
- Survival Rate (Candida albicans KE-2 [1]): 100%

Compound: O=C(c1ccc(Cl)cc1Cl)C(O)(Cn1ccnc1)c1ccc(Cl)cc1Cl (centres unmarked) [Compound No. 1, 2',4'-dichloro-2-(2,4-dichlorophenyl)-2-hydroxy-3-(1H-imidazol-1-yl)propiophenone]
- MIC (Trichophyton asteroides): 0.1 mg/L (≈ 0.232 µM)
- Foliar spray (125 ppm) Supprension [2]: 10
- Foliar spray (125 ppm) Prevention [2]: 10

Compound: CCC(C)C(=O)C(O)(Cn1cncn1)c1ccc(Cl)cc1Cl (centres unmarked) [compound 28]
- minimal effective concentration (Candida albicans KE-2 [3]): 0.02 µg/mL

Compound: COc1ccc(C(=O)C(O)(Cn2cncn2)c2ccc(OC)cc2)cc1 (centres unmarked) [compound 7]
- MIC (Trichophyton asteroides): 12.5 mg/L (≈ 35.4 µM)

Compound: OC(c1ccccc1Cl)C(O)(Cn1cncn1)c1ccccc1Cl (centres unmarked) [compound 69]
- MIC (Trichophyton asteroides): 0.1 mg/L (≈ 0.275 µM)
- minimal effective concentration (Candida albicans KE-2 [3]): 0.08 µg/mL

Compound: Cc1ccc(C(=O)C(O)(Cn2cncn2)c2ccc(C)cc2)cc1 (centres unmarked) [compound 9]
- MIC (Trichophyton asteroides): 1.56 mg/L (≈ 4.85 µM)

Compound: O=C(c1ccccc1F)C(O)(Cn1cncn1)c1ccc(Cl)cc1Cl (centres unmarked) [compound 46]
- Survival Rate (Candida albicans KE-2 [1]): 87.5%
- Soil application (10 ppm) Prevention [2]: 5 (Disease sign was detected for about 30 % area)
- Foliar spray (125 ppm) Supprension [2]: 10
- Foliar spray (125 ppm) Prevention [2]: 10
- Disease degree (%) ([4]; 22 ± 2°C, humid): 20%
- Control (%) ([4]; calculated from disease degree): 80%
- Disease degree (%) [5]: 0%
- Control (%) [5]: 100%

Compound: OC(c1ccc(F)cc1)C(O)(Cn1cncn1)c1ccc(Cl)cc1Cl (centres unmarked) [compound 67]
- MIC (Trichophyton asteroides): 0.1 mg/L (≈ 0.262 µM)
- minimal effective concentration (Candida albicans KE-2 [3]): 0.08 µg/mL
- Survival Rate (Candida albicans KE-2 [1]): 100%

Compound: OC(c1ccc(F)cc1)C(O)(Cn1cncn1)c1ccc(F)cc1 (centres unmarked) [compound 71]
- MIC (Trichophyton asteroides): 1.56 mg/L (≈ 4.71 µM)
- Soil application (10 ppm) Prevention [2]: 10
- Foliar spray (125 ppm) Supprension [2]: 10
- Foliar spray (125 ppm) Prevention [2]: 10

Compound: OC(c1ccc(Cl)cc1Cl)C(O)(Cn1cncn1)c1ccc(F)cc1 (centres unmarked) [compound 78]
- minimal effective concentration (Candida albicans KE-2 [3]): 0.31 µg/mL

Compound: O=C(c1ccccc1Cl)C(O)(Cn1cncn1)c1ccccc1Cl (centres unmarked) [compound 10]
- MIC (Trichophyton asteroides): 0.1 mg/L (≈ 0.276 µM)
- minimal effective concentration (Candida albicans KE-2 [3]): 0.08 µg/mL
- Disease degree (%) [5]: 8%
- Control (%) [5]: 92%

Compound: OC(c1ccc(Cl)cc1Cl)C(O)(Cn1cncn1)c1ccc(Cl)cc1Cl (centres unmarked) [compound 63, 1,2-bis(2,4-dichlorophenyl)-3-(1H-1,2,4-triazol-1-yl)-propylene glyco]
- MIC (Trichophyton asteroides): 0.1 mg/L (≈ 0.231 µM)
- minimal effective concentration (Candida albicans KE-2 [3]): 0.08 µg/mL
- Survival Rate (Candida albicans KE-2 [1]): 75%

Compound: CCCC(O)C(O)(Cn1cncn1)c1ccc(Cl)cc1 (centres unmarked) [compound 80]
- MIC (Trichophyton asteroides): 1.6 mg/L (≈ 5.41 µM)

Compound: O=C(c1cccc(Cl)c1)C(O)(Cn1cncn1)c1cccc(Cl)c1 (centres unmarked) [compound 11]
- MIC (Trichophyton asteroides): 3.13 mg/L (≈ 8.64 µM)

Compound: CCCC(=O)C(O)(Cn1cncn1)c1ccccc1Cl (centres unmarked) [compound 32]
- MIC (Trichophyton asteroides): 0.8 mg/L (≈ 2.72 µM)
- minimal effective concentration (Candida albicans KE-2 [3]): 0.04 µg/mL
- Soil application (10 ppm) Prevention [2]: 10
- Foliar spray (125 ppm) Supprension [2]: 10
- Foliar spray (125 ppm) Prevention [2]: 10

Compound: CCCC(=O)C(O)(Cn1cncn1)c1ccc(Cl)cc1Cl (centres unmarked) [compound 25]
- Growth of mycelia (mm) ([6]; 28°C, r.h. 97 %): 20 mm
- Suppression (%) ([6]; calculated from growth of mycelia): 90%
- MIC (Trichophyton asteroides): 0.1 mg/L (≈ 0.305 µM)
- minimal effective concentration (Candida albicans KE-2 [3]): 0.04 µg/mL
- Soil application (10 ppm) Prevention [2]: 10
- Foliar spray (125 ppm) Supprension [2]: 10
- Foliar spray (125 ppm) Prevention [2]: 10

Compound: O=C(c1ccc(F)cc1)C(O)(Cn1cncn1)c1ccc(Cl)cc1Cl (centres unmarked) [compound 8]
- minimal effective concentration (Candida albicans KE-2 [3]): 1.25 µg/mL
- Disease degree (%) [5]: 5%
- Control (%) [5]: 95%

Compound: CCC(C)C(=O)C(O)(Cn1cncn1)c1ccc(Cl)cc1 (centres unmarked) [compound 34]
- MIC (Trichophyton asteroides): 0.1 mg/L (≈ 0.325 µM)

Compound: CCCCC(=O)C(O)(Cn1cncn1)c1ccc(Cl)cc1Cl (centres unmarked) [compound 23]
- MIC (Trichophyton asteroides): 0.1 mg/L (≈ 0.292 µM)

Compound: O=C(c1ccc(Cl)cc1Cl)C(O)(Cn1cncn1)c1ccc(Cl)cc1Cl (centres unmarked) [compound 6]
- MIC (Trichophyton asteroides): 0.1 mg/L (≈ 0.232 µM)
- minimal effective concentration (Candida albicans KE-2 [3]): 0.16 µg/mL
